Results on one molecule are retold here after US20250034520A1, “INCREASING DEVELOPMENTAL POTENTIAL OF HUMAN PREIMPLANTATION EMBRYOS BY REDUCING GENETIC INSTABILITY, ANEUPLOIDIES AND CHROMOSOMAL MOSAICISM” (THE TRUSTEES OF COLUMBIA UNIVERSITY IN THE CITY OF NEW YORK, priority 2022, published 2025).

What all share (assay type): cell-based
The subject of one test is mouse 1-cell embryos. Description: timing of mitotic entry in mouse 1-cell embryos. The following applies: application in G2 phase, depending on the time point of application. The protocol:
(§1) Embryos, mouse and human, were cultured in Global Total (Life-Global) for the duration of the experiments and with added compounds as outlined below. Incubation in RNA polymerase inhibitors triptolide (1 mM) or alpha amanitin (20 mg/ml) was performed from the 2PN stage (day1) to day3 of human development. Incubation in aphidicolin was performed at 2 mM. […] Mirin was used at a concentration of 50 mM. Olaparib was used to inhibit PARP at a concentration of 10 mM. All experiments were conducted during incubation at 37° C. with 5% CO2 and 19-20% O2. Chemical stock solutions were prepared in DMSO at concentrations at least 1000× higher than the final concentration.
(§2) Mouse oocytes were activated at 1-6 hours post retrieval using 2 mM ionomycin (Sigma Aldrich) in Global Total medium for 5 minutes at 37° C. followed by culture in 10 mM puromycin and 5 mg/ml cytochalasin B for 3 hours, then cytochalasinB only for 2 hours and 10 minutes to prevent second polar body extrusion.

The next test concerns human embryos. Description: nucleation and development of human embryos.
Description: Cryopreserved human cleavage-stage and blastocyst embryos and unfertilized oocytes were anonymously donated from individuals and couples who provided consent for use in research. Embryos were of good quality and had been cryopreserved for potential clinical use but were then no longer needed and donated for research. The cause of treatment is not disclosed. Range of maternal age of donated embryos is between 27-43. Embryos of both sexes were used, as provided by the unbiased fertilization of oocytes with sperm carrying either a Y or X chromosome. Cleavage stage embryos were thawed using the one-step thaw protocol using Global total with HEPES. Blastocyst stage embryos were thawed using the Quinn's Advantage thaw kit, then exposed to experimental conditions as outlined below. Vitrified embryos were thawed with the ECMPC warming solution set. Embryo culture was performed in Global Total. All experiments were conducted during incubation at 37° C. with 5% CO2 and 20% 02.
as §1
Following the experimental exposures, mouse and human embryos were fixed in 2% paraformaldehyde (PFA) and 0.25% Triton X-100 in PBS for 10 minutes at room temperature, serially washed in phosphate-buffered solution (PBS) at room temperature, then stored in PBS at 4° C. until staining and imaging. Embryos were placed in 10-20 ml droplets of primary antibody solution within plastic tissue culture dishes covered with mineral oil for 1 hour at room temperature, serially washed (×2) in PBS containing 0.01% Triton X-100 to prevent embryos sticking to oil, then transferred to 10-20 ml secondary antibody solution and Hoechst (dilution 1:500) for 30 minutes. Embryos were then serially washed (×2) and placed in 5 ml droplets of PBS with 0.5% serum albumin in uncoated glass bottom dishes (Mattek) covered with embryo culture oil for imaging. […]
Embryos were imaged with confocal microscopy using a Zeiss LSM (LSM 710) at a magnification of 63× and the Zeiss Zen software. […] Cell numbers and staining foci numbers were counted manually. […]

Test [1] concerns mouse parthenogenetic zygotes. Put plainly: anaphase figures at the first mitosis, mouse parthenogenetic zygotes. How it is done:
as §1, §2
Following the experimental exposures, mouse and human embryos were fixed in 2% paraformaldehyde (PFA) and 0.25% Triton X-100 in PBS for 10 minutes at room temperature, serially washed in phosphate-buffered solution (PBS) at room temperature, then stored in PBS at 4° C. until staining and imaging. Embryos were placed in 10-20 ml droplets of primary antibody solution within plastic tissue culture dishes covered with mineral oil for 1 hour at room temperature, serially washed (×2) in PBS containing 0.01% Triton X-100 to prevent embryos sticking to oil, then transferred to 10-20 ml secondary antibody solution and Hoechst (dilution 1:500) for 30 minutes. Embryos were then serially washed (×2) and placed in 5 ml droplets of PBS with 0.5% serum albumin in uncoated glass bottom dishes (Mattek) covered with embryo culture oil for imaging. The following primary antibodies were used across experiments as described above: Oct-4, γH2AX, RPA32, RPA32 S4/S8, RPA32 S33, 53BP1, RAD51, Centromere, and phospho-CHK1. Phospho-specific antibodies were quality controlled through ATR dependence of foci formation in mouse zygotes, and for γH2AX also in human zygotes. […] The appropriate secondary antibodies conjugated with Alexa Fluor 488, Alexa Fluor 555, CF 568, or Alexa Fluor 647 were diluted at 1:500-1:1000. Ethynyl deoxyuridine (EdU) labeling of zygotes and embryos was performed using the labeling kit (Thermo Fisher Scientific) as described by the manufacturer. 10 mM EdU was added to culture medium for 1 h at the indicated time points, and cells were harvested and fixed thereafter. 5-ethynyl uridine (EU) labeling was performed by incubating day3 cleavage stage embryos for 4 hours in Global total containing 0.2 mM EU.

`C[C@@]1(CO)[C@H](O)CC[C@@]2(C)[C@H]1CC[C@H]1C[C@@H]3C[C@@]12CC[C@]3(O)CO` [aphidicolin]: in the test with mouse 1-cell embryos, the mitotic entry entry was “inhibited”. Further, the “formation of multinucleate cells” value in the test with human embryos (6 parthenogenetically activated embryos, aphidicolin and G2 checkpoint kinase inhibitor at 15.5 h) is “uniformly resulting in the formation of multinucleate cells”. The “failure to polarize chromosomes in the nucleus” value in the test on human embryos (aphidicolin-treated human parthenotes) is recorded as 16/17. Moreover, the “embryos with abnormal anaphase, range per experiment” value in test [1] (aphidicolin in G2 phase) is given as 7%-30%. The “embryos with abnormal anaphase” value in test [1] (aphidicolin in G2 phase, controls 191/191 normal) stood at 17.4%. For the same molecule, in test [1] (applied only after pronuclear envelope breakdown), the “effect on chromosome segregation at anaphase” value is “inconsequential”. Besides, the “frequency of abnormal anaphase figures” value in test [1] (both ATR kinase inhibitor and aphidicolin in G2 phase) amounted to 63%.
